Test results: US8058285B2, “Substituted pyrido [3′, 2′: 4, 5] thieno [3, 2-D] pyrimidines and pyrido [3′, 2′: 4, 5] furo [3, 2-D] pyrimidines used as inhibitors of the PDE-4 and/or the release of TNF-ALPHA” (The Medicines Company (Leipzig) GmbH, priority 2004, dated 2011)
Structures can show the parent of a compound that is named as a salt.

These molecules were tested against T1, PDE-4A (Homo sapiens, UniProt P27815) (assay: PDE-4A inhibitory assay (SPA)).
T1 construct: PDE-4A catalytic domain comprising amino acids 342-704; made in house; host or cells: Escherichia coli
T1 sequence (P27815 342-704): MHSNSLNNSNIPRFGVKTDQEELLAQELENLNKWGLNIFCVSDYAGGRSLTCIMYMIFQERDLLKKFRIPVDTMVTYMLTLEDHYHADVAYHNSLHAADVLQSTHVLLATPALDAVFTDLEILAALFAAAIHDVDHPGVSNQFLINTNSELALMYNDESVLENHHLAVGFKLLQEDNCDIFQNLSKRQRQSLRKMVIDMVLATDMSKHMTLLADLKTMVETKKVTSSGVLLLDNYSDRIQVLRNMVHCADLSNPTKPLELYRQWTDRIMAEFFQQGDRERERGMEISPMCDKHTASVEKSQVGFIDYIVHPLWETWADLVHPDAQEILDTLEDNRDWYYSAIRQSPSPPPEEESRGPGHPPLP
Assay type: biochemical
Excerpt: Human recombinant PDE-4A catalytic domain comprising amino acids 342-704 was cloned into Escherichia coli and expressed, as described by W. Richter et al., Protein Expression and Purification (2000) 19: 375-383. The other posphodiesterases were either obtained from cell lines of human origin (TPH1 monocytes line for PDE-1, MCF7 for PDE-5) or expressed recombinantly in sf9 insect cells (for PDE-3A, PDE-3B, PDE-7A and PDE-4D) in accordance with an adapted method by Luckow, V. A. et al., in: Recombinant DNA Technology & Applications., (1991) eds. Prokop, Bajpai, R. K. & Ho, C. S., pp 97-152.
The phosphodiesterase activity was determined by the SPA assay as described by the manufacturer Amersham Biosciences and by Horton J. K and Baxendale P. M., Methods Mol. Biol. (1995) 41: 91-105.
The reaction mixtures contained 100 mM Tris-HCl (pH 7.5), 5 mM MgCl2, 3.8 mM 2-mercaptoethanol, and 1 μM cAMP or cGMP as a substrate, the inhibitors at different concentrations and also further components required for the detection of the individual isoenzymes (see below). The reaction was started by adding the enzyme. The operating volume is 100 μl in the wells of a white 96-Well microtiter plate. The test substances were produced as stock solutions in DMSO. The DMSO concentration in the reaction batch was 1% v/v. The PDE activity is not impaired with this DMSO concentration. Having started the reaction by the addition of enzyme, the samples were incubated at 22° C. for 20 min. The reaction was stopped by the addition of SPA bead suspension which contains the zinc sulfate concentration provided according to the manufacturer. Then, the beads are allowed to sediment for 30 min and the plates are analyzed on the luminescence microtiter plate reader Fluostar Optima (BMG Labtechologies).
[^3H]-cAMP was used as a substrate for determining the activity of PDE-2, -3, -4 and -7 and [^3H]-cGMP for determining the activity of PDE-5. The non-specific enzyme activities were determined in the presence of 100 μM rolipram (for PDE-4) and in the presence of 100 μM IBMX (for PDE-3 and -5) and subtracted from the test values. The incubation samples of the PDE-3 assay contain 10 μM rolipram to inhibit possible contaminations by PDE-4. The PDE-2 activity is tested using a SPA assay by Amersham Biosciences in the presence of the PDE-2 activator 5 μM cGMP. […] The selectivity as to PDEs 2, 3 and 5 has a factor of 100 to 10 000.
For `CCOc1nc(N2CCNCC2)nc2c1sc1nc(-c3ccc(-n4cccc4)cc3)cc(C(F)(F)F)c12` [4-Ethoxy-9-trifluoromethyl-2-piperazin-1-yl-7-(4-(1H-pyrrol-1-yl)-phenyl)-pyrido[3′,2′:4,5]thieno[3,2-d]pyrimidine], the IC50 was < 2 nM. `CCOc1nc(N2CCNCC2)c2sc3nc(-c4ccc5c(c4)OCCO5)cc(CC)c3c2n1` [2-Ethoxy-9-ethyl-7-(2,3-dihydrobenzo[b][1,4]dioxin-6-yl)-4-(piperazin-1-yl)-pyrido[3′,2′:4,5]thieno[3,2-d]pyrimidine] was tested, and the IC50 was < 2 nM. `CCOc1nc(N2CCNCC2)nc2c1sc1nc(-c3ccc(OC)c(OC)c3)cc(C)c12` [4-Ethoxy-7-(3,4-dimethoxy-phenyl)-9-methyl-2-(piperazin-1-yl)-pyrido[3′,2′:4,5]thieno-[3,2-d]pyrimidine] showed an IC50 of 2 to 50 nM. With `CCOc1nc(N2CCNCC2)nc2c1sc1nc(-c3ccc(C)cc3)cc(C)c12` [4-Ethoxy-9-methyl-7-(4-methyl-phenyl)-2-(piperazin-1-yl)-pyrido[3′,2′:4,5]thieno[3,2-d]pyrimidine] the IC50 was 2 to 50 nM. With `CCOc1nc(N2CCNCC2)nc2c1sc1nc(-c3ccc(I)cc3)cc(C(F)(F)F)c12` [4-Ethoxy-7-(4-iodo-phenyl)-2-(piperazin-1-yl)-9-trifluoromethyl-pyrido[3′,2′:4,5]thieno[3,2-d]pyrimidine] the IC50 was < 2 nM. `CCOc1nc(N2CCNCC2)nc2c1sc1nc(-c3ccc(-c4cncnc4)cc3)nc(C)c12` [4-Ethoxy-9-methyl-2-piperazin-1-yl-7-(4-[5-pyrimidinyl]-phenyl)-thieno[2,3-d:4,5-d′]dipyrimidine] showed an IC50 of 2 to 50 nM. `CCOc1nc(N2CCNCC2)nc2c1sc1nc(-c3cccc(N)c3)cc(C(F)(F)F)c12` [7-(3-Amino-phenyl)-4-Ethoxy-2-piperazin-1-yl-9-trifluoromethyl-pyrido[3′,2′:4,5]thieno[3,2-d]pyrimidine] was tested, and the IC50 was 2 to 50 nM. `CCOc1nc(N2CCNCC2)nc2c1sc1nc(-c3ccc([N+](=O)[O-])cc3)cc(C(F)(F)F)c12` [4-Ethoxy-7-(4-nitro-phenyl)-2-piperazin-1-yl-9-trifluoromethyl-pyrido[3′,2′:4,5]thieno[3,2-d]pyrimidine] was tested, and the IC50 was 2 to 50 nM. For `CCCOc1nc(N2CCNCC2)nc2c1sc1nc(-c3ccc(OCC)cc3)cc(CC)c12` [7-(4-Ethoxy-phenyl)-9-ethyl-2-(piperazin-1-yl)-4-n-propoxy-pyrido[3′,2′:4,5]thieno[3,2-d]pyrimidine], the IC50 was < 2 nM. `CCOc1nc(N2CCNCC2)nc2c1sc1nc(-c3ccc(OC)cc3)cc(CC)c12` [4-Ethoxy-9-ethyl-7-(4-methoxyphenyl)-2-(piperazin-1-yl)-pyrido[3′,2′:4,5]thieno[3,2-d]pyrimidine] was tested, and the IC50 was < 2 nM. `Cc1cc(-c2ccccc2)nc2sc3c(OC(C)C)nc(N4CCNCC4)nc3c12` [9-Methyl-7-phenyl-2-(piperazin-1-yl)-4-iso-propoxy-pyrido[3′,2′:4,5]thieno[3,2-d]pyrimidine] was tested, and the IC50 was 2 to 50 nM. For `CCOC(=O)c1ccc(-c2cc(C(F)(F)F)c3c(n2)sc2c(OCC)nc(N4CCNCC4)nc23)cc1` [4-[4-Ethoxy-2-(piperazin-1-yl)-9-trifluoromethyl-pyrido[3′,2′:4,5]thieno[3,2-d]pyrimidin-7-yl]-benzoic acid ethyl ester], the IC50 was < 2 nM. In the case of `CCOc1nc(N2CCNCC2)nc2c1sc1nc(-c3ccc(Oc4ccccc4)cc3)nc(C)c12` [4-Ethoxy-9-methyl-7-(4-phenoxy-phenyl)-2-piperazin-1-yl-thieno[2,3-d:4,5-d′]dipyrimidine], the IC50 is reported as < 2 nM. `CCCOc1nc(N2CCNCC2)c2sc3nc(-c4ccc(OCC)cc4)cc(CC)c3c2n1` [7-(4-Ethoxy-phenyl)-9-ethyl-4-(piperazin-1-yl)-2-n-propoxy-pyrido[3′,2′:4,5]thieno[3,2-d]pyrimidine] gave an IC50 of 2 to 50 nM. With `CCOc1nc(N2CCNCC2)nc2c1sc1nc(-c3cccc([N+](=O)[O-])c3)cc(C(F)(F)F)c12` [4-Ethoxy-7-(3-nitro-phenyl)-2-piperazin-1-yl-9-trifluoromethyl-pyrido[3′,2′:4,5]thieno[3,2-d]pyrimidine] the IC50 was < 2 nM. Molecule `CCOc1nc(N2CCNCC2)nc2c1sc1nc(-c3ccc(C(O)c4cccnc4)cc3)nc(C)c12` (stereo not shown) [4-Ethoxy-7-(4-[hydroxy{3-pyridyl}methyl]-phenyl)-9-methyl-2-piperazin-1-yl-thieno[2,3-d:4,5-d′]dipyrimidine] has an IC50 of 2 to 50 nM. For `CCOc1nc(N2CCNCC2)nc2c1sc1nc(-c3ccc(-c4ccc(C(=O)OC)cc4N)cc3)nc(C)c12` [2′-Amino-4-(4-ethoxy-9-methyl-2-piperazin-1-yl-thieno[2,3-d:4,5-d′]dipyrimidin-7-yl)-biphenyl-4′-carboxylic acid methyl ester], the IC50 was < 2 nM. Work on `CCOc1nc(N2CCNCC2)nc2c1sc1nc(-c3ccc4c(c3)OCO4)cc(C)c12` [4-Ethoxy-9-methyl-7-(3,4-methylenedioxyphenyl)-2-piperazin-1-yl-pyrido[3′,2′:4,5]thieno-[3,2-d]pyrimidine] yielded an IC50 of 2 to 50 nM. `CCOc1nc(N2CCNCC2)nc2c1sc1nc(-c3ccc(SC)cc3)cc(C)c12` [4-Ethoxy-9-methyl-7-(4-methylthio-phenyl)-2-piperazin-1-yl-pyrido[3′,2′:4,5]thieno[3,2-d]pyrimidine] gave an IC50 of 2 to 50 nM. `CCOc1nc(N2CCNCC2)nc2c1sc1nc(-c3ccc(-c4ccncc4)cc3)nc(C)c12` [4-Ethoxy-9-methyl-2-piperazin-1-yl-7-(4-[4-pyridyl]-phenyl)-thieno[2,3-d:4,5-d′]dipyrimidine] was tested, and the IC50 was < 2 nM. `Cc1cc(-c2ccccc2)nc2sc3c(OCCO)nc(N4CCNCC4)nc3c12` [4-(2-Hydroxy-ethoxy)-9-methyl-7-phenyl-2-(piperazin-1-yl)-pyrido[3′,2′:4,5]thieno[3,2-d]pyrimidine] showed an IC50 of 2 to 50 nM. With `CCOc1nc(N2CCNCC2)nc2c1sc1nc(-c3ccc4c(c3)OCO4)cc(CC)c12` [4-Ethoxy-9-ethyl-7-(3,4-methylenedioxyphenyl)-2-piperazin-1-yl-pyrido[3′,2′:4,5]thieno-[3,2-d]pyrimidine] the IC50 was < 2 nM. `CCOc1nc(N2CCNCC2)nc2c1sc1nc(-c3ccc(-c4ccc(C(=O)O)cc4)cc3)nc(C)c12` [4-(4-Ethoxy-9-methyl-2-piperazin-1-yl-thieno[2,3-d:4,5-d′]dipyrimidin-7-yl)-biphenyl-4′-carboxylic acid sodium salt] gave an IC50 of 2 to 50 nM. In the case of `CCOc1nc(N2CCNCC2)nc2c1sc1nc(-c3ccc(C(C)(C)C)cc3)nc(C)c12` [7-(4-tert-Butyl-phenyl)-4-ethoxy-9-methyl-2-piperazin-1-yl-thieno[2,3-d:4,5-d′]dipyrimidine], the IC50 is reported as 2 to 50 nM. Molecule `CCOc1nc(N2CCNCC2)nc2c1sc1nc(-c3ccc(N4CCOCC4)cc3)cc(C(F)(F)F)c12` [4-Ethoxy-7-(4-morpholinophenyl)-2-(piperazin-1-yl)-9-trifluoromethyl-pyrido[3′,2′:4,5]thieno[3,2-d]pyrimidine] has an IC50 of 2 to 50 nM. `Cc1cc(-c2ccccc2)nc2sc3c(N4CCNCC4)nc(OC(C)C)nc3c12` [9-Methyl-7-phenyl-4-(piperazin-1-yl)-2-iso-propoxy-pyrido[3′,2′:4,5]thieno[3,2-d]pyrimidine] was tested, and the IC50 was 2 to 50 nM. For `CCOc1nc(N2CCNCC2)nc2c1sc1nc(-c3ccc(OC)cc3)nc(C)c12` [4-Ethoxy-7-(4-methoxy-phenyl)-9-methyl-2-piperazin-1-yl-thieno[2,3-d:4,5-d′]dipyrimidine], the IC50 was 2 to 50 nM. With `CCOc1nc(N2CCNCC2)nc2c1sc1nc(-c3ccc4c(c3)OCCO4)cc(C(F)(F)F)c12` [7-(2,3-Dihydrobenzo[b][1,4]dioxin-6-yl)-4-ethoxy-2-(piperazin-1-yl)-9-trifluoromethyl-pyrido[3′,2′:4,5]thieno[3,2-d]pyrimidine] the IC50 was < 2 nM. `CCOc1nc(N2CCNCC2)c2sc3nc(-c4ccc5c(c4)OCO5)cc(C)c3c2n1` [2-Ethoxy-9-methyl-7-(3,4-methylenedioxyphenyl)-4-piperazin-1-yl-pyrido[3′,2′:4,5]thieno-[3,2-d]pyrimidine] gave an IC50 of 2 to 50 nM. With `CCOc1nc(N2CCNCC2)nc2c1sc1nc(-c3ccc(-n4cccn4)cc3)cc(C(F)(F)F)c12` [4-Ethoxy-7-(4-(1H-pyrazol-1-yl)-phenyl)-2-piperazin-1-yl-9-trifluoromethyl-pyrido[3′,2′:4,5]thieno[3,2-d]pyrimidine] the IC50 was < 2 nM. In the case of `CCOc1nc(N2CCNCC2)nc2c1sc1nc(-c3ccc4c(c3)OCCO4)cc(CC)c12` [4-Ethoxy-9-ethyl-7-(2,3-dihydrobenzo[b][1,4]dioxin-6-yl)-2-(piperazin-1-yl)-pyrido[3′,2′:4,5]thieno[3,2-d]pyrimidine], the IC50 is reported as < 2 nM.
